Patent US20250115583A1, “BICYCLIC INDAZOLE GLUCOCORTICOID RECEPTOR ANTAGONISTS” (Corcept Therapeutics Incorporated, priority 2021, published 2025)

Target: glucocorticoid receptor (Homo sapiens (Human), UniProt P04150)
Assay: HepG2 TAT assay: inhibition of dexamethasone-induced tyrosine aminotransferase (TAT) activity
Assay type: cell-based
Conditions: HepG2 cells, challenge of 100 nM dexamethasone, 18-24 hr; IC50 converted to Ki by Cheng and Prusoff equation
How it was run: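 Cells lysed 15 min at 4 °C; TAT enzyme reaction 2 h at 37 °C, stopped with KOH, 30 min further at 37 °C. Inhibition fitted to 4-parameter logistic.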

Sequence of glucocorticoid receptor (P04150 whole entry): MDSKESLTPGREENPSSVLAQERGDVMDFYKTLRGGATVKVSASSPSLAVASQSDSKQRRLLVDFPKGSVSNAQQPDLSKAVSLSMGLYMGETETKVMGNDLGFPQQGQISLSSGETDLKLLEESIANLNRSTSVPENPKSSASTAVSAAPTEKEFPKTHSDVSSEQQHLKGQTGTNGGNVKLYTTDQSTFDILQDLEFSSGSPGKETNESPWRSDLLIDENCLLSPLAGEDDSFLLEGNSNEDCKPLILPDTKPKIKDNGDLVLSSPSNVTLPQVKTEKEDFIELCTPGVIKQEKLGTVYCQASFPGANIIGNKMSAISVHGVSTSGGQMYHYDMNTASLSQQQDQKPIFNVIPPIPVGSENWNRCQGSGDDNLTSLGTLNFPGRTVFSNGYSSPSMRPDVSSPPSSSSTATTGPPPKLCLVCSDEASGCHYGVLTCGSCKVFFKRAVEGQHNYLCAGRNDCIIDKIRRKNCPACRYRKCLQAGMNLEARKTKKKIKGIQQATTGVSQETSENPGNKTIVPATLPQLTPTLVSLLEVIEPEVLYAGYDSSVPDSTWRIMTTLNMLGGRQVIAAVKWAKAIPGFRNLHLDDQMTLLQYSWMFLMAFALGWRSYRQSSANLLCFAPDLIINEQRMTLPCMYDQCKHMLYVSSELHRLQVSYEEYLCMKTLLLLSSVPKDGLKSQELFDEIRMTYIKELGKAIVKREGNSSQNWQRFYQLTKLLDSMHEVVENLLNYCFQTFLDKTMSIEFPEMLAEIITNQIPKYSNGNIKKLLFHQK

Row | Ki [µM] | SMILES
1 | 0.68 | Cc1cc2c(cnn2-c2ccc(F)cc2)cc1C12CN(S(=O)(=O)c3cnn(C)n3)CC1C2COc1ccccn1 (stereo not shown) [Example 50, 1-(4-fluorophenyl)-6-methyl-5-(3-((2-methyl-2H-1,2,3-triazol-4-yl)sulfonyl)-6-((pyridin-2-yloxy)methyl)-3-azabicyclo[3.1.0]hexan-1-yl)-1H-indazole]
2 | 0.033 | COC1(c2ccccc2)CC2CN(S(=O)(=O)c3cnn(C)c3)CC2(c2cc3cnn(-c4ccc(F)cc4)c3cc2C)C1 (stereo not shown) [Example 11, 1-(4-Fluorophenyl)-5-(5-methoxy-2-((1-methyl-1H-pyrazol-4-yl)sulfonyl)-5-phenylhexahydrocyclopenta[c]pyrrol-3a(1H)-yl)-6-methyl-1H-indazole]
3 | 0.032 | COC1(c2ccccc2)CC2CN(S(=O)(=O)C3(C)CC3)CC2(c2cc3cnn(-c4ccc(F)cc4)c3cc2C)C1 (stereo not shown) [Example 28]
4 | 0.0094 | Cc1cc2c(cnn2-c2ccc(F)cc2)cc1[C@@]12CN(S(=O)(=O)c3ccn(C)n3)C[C@@H]1[C@H]2c1ccccc1 (single isomer, unassigned) [Example 76]
5 | 0.38 | Cc1cc2c(cnn2-c2ccc(F)cc2)cc1C12CN(S(=O)(=O)c3cnn(C)n3)CC1C2COc1ccc(Cl)cc1 (single isomer, unassigned) [Example 52, 5-(6-((4-chlorophenoxy)methyl)-3-((2-methyl-2H-1,2,3-triazol-4-yl)sulfonyl)-3-azabicyclo[3.1.0]hexan-1-yl)-1-(4-fluorophenyl)-6-methyl-1H-indazole]
6 | 0.048 | COCC(=O)N1C[C@@H]2[C@@H](c3ccccc3)[C@]2(c2cc3cnn(-c4ccc(F)cc4)c3cc2C)C1 (single isomer, unassigned) [Example 119, 1-(1-(1-(4-fluorophenyl)-6-methyl-1H-indazol-5-yl)-6-phenyl-3-azabicyclo[3.1.0]hexan-3-yl)-2-methoxyethan-1-one]
7 | 0.038 | Cc1cc2c(cnn2-c2ccc(F)cc2)cc1[C@@]12CN(S(=O)(=O)c3cnn(C)n3)C[C@@H]1[C@H]2C(=O)Nc1ccc(F)cn1 (stereo in doubt) [Example 56, 1-(1-(4-fluorophenyl)-6-methyl-1H-indazol-5-yl)-N-(5-fluoropyridin-2-yl)-3-((2-methyl-2H-1,2,3-triazol-4-yl)sulfonyl)-3-azabicyclo[3.1.0]hexane-6-carboxamide]
8 | 0.3 | Cc1cc2c(cnn2-c2ccc(F)cc2)cc1[C@@]12CN(S(=O)(=O)c3cnn(C)n3)C[C@@H]1[C@H]2C(=O)N1CCCC1 (stereo in doubt) [Example 55, (1-(1-(4-fluorophenyl)-6-methyl-1H-indazol-5-yl)-3-((2-methyl-2H-1,2,3-triazol-4-yl)sulfonyl)-3-azabicyclo[3.1.0]hexan-6-yl)(pyrrolidin-1-yl)methanone]
9 | 0.034 | Cc1cc2c(cnn2-c2ccc(F)cc2)cc1[C@@]12CN(C(=O)N3CCCC3)C[C@@H]1[C@H]2c1ccccc1 (single isomer, unassigned) [Example 126, (1-(1-(4-fluorophenyl)-6-methyl-1H-indazol-5-yl)-6-phenyl-3-azabicyclo[3.1.0]hexan-3-yl)(pyrrolidin-1-yl)methanone]
10 | 0.048 | Cc1cc2c(cnn2-c2ccc(F)cc2)cc1[C@@]12CN(C(=O)c3cccc(C(F)(F)F)n3)C[C@@H]1[C@H]2c1ccccc1 (stereo in doubt) [Example 145, (1-(1-(4-fluorophenyl)-6-methyl-1H-indazol-5-yl)-6-phenyl-3-azabicyclo[3.1.0]hexan-3-yl)(6-(trifluoromethyl)pyridin-2-yl)methanone]
11 | 0.11 | COC1(c2cccc(C)c2)CC2CN(S(=O)(=O)c3cnn(C)c3)CC2(c2cc3cnn(-c4ccc(F)cc4)c3cc2C)C1 (stereo not shown) [Example 14]
12 | 0.29 | Cc1cc2c(cnn2-c2ccc(F)cc2)cc1[C@@]12CN(S(=O)(=O)c3cnn(C)n3)C[C@@H]1[C@H]2COC(C)C (stereo in doubt) [Example 51, 1-(4-fluorophenyl)-5-(6-(isopropoxymethyl)-3-((2-methyl-2H-1,2,3-triazol-4-yl)sulfonyl)-3-azabicyclo[3.1.0]hexan-1-yl)-6-methyl-1H-indazole]
13 | 0.044 | CO[C@@]1(c2ccccc2)C[C@H]2CN(S(=O)(=O)c3cnn(C)c3)C[C@@]2(c2cc3cnn(-c4ccc(F)cc4)c3cc2C)C1 [Example 6, 1-(4-fluorophenyl)-5-((3aS,5S,6aR)-5-methoxy-2-((1-methyl-1H-pyrazol-4-yl)sulfonyl)-5-phenylhexahydrocyclopenta[c]pyrrol-3a(1H)-yl)-6-methyl-1H-indazole]
14 | 0.09 | CC(=O)N1C[C@H]2[C@H](C(=O)Nc3ccc(F)cn3)[C@@]2(c2cc3cnn(-c4ccc(F)cc4)c3cc2C)C1 (stereo in doubt) [Example 68, 3-acetyl-1-(1-(4-fluorophenyl)-6-methyl-1H-indazol-5-yl)-N-(5-fluoropyridin-2-yl)-3-azabicyclo[3.1.0]hexane-6-carboxamide]
15 | 0.019 | Cc1cc2c(cnn2-c2ccc(F)cc2)cc1[C@@]12CN(C(=O)c3cnn(C)n3)C[C@@H]1[C@H]2c1ccccc1 (single isomer, unassigned) [Example 127, (1-(1-(4-fluorophenyl)-6-methyl-1H-indazol-5-yl)-6-phenyl-3-azabicyclo[3.1.0]hexan-3-yl)(2-methyl-2H-1,2,3-triazol-4-yl)methanone]
16 | 0.047 | CO[C@@]1(c2ccccc2)C[C@H]2CN(S(=O)(=O)c3cnn(C)n3)C[C@@]2(c2cc3cnn(-c4ccc(F)cc4)c3cc2C)C1 (stereo in doubt) [Example 19, 1-(4-fluorophenyl)-5-(5-methoxy-2-((2-methyl-2H-1,2,3-triazol-4-yl)sulfonyl)-5-phenylhexahydrocyclopenta[c]pyrrol-3a(1H)-yl)-6-methyl-1H-indazole]
17 | 0.023 | Cc1cc2c(cnn2-c2ccc(F)cc2)cc1[C@@]12CN(C(=O)c3cc(C)n(C)n3)C[C@@H]1[C@H]2c1ccccc1 (stereo in doubt) [Example 177, (1,5-dimethyl-1H-pyrazol-3-yl)(1-(1-(4-fluorophenyl)-6-methyl-1H-indazol-5-yl)-6-phenyl-3-azabicyclo[3.1.0]hexan-3-yl)methanone]
18 | 0.3 | CC(=O)NC[C@@H]1[C@H]2CN(S(=O)(=O)c3cnn(C)n3)C[C@@]12c1cc2cnn(-c3ccc(F)cc3)c2cc1C (racemic) [Example 135, N-((1-(1-(4-fluorophenyl)-6-methyl-1H-indazol-5-yl)-3-((2-methyl-2H-1,2,3-triazol-4-yl)sulfonyl)-3-azabicyclo[3.1.0]hexan-6-yl)methyl)acetamide]
19 | 0.11 | Cc1cc2c(cnn2-c2ccc(F)cc2)cc1C12CC(Oc3ccccn3)CC1CN(S(C)(=O)=O)C2 (stereo not shown) [Example 41]
20 | 0.13 | COC1(c2ccccc2)CC2CN(S(=O)(=O)c3ccn(C)n3)CC2(c2cc3cnn(-c4ccc(F)cc4)c3cc2C)C1 (stereo not shown) [Example 31]
21 | 0.12 | Cc1cc2c(cnn2-c2ccc(F)cc2)cc1[C@@]12CN(S(=O)(=O)c3cnn(C)n3)C[C@@H]1[C@H]2COc1ccccc1 (stereo in doubt) [Example 49, 1-(4-fluorophenyl)-6-methyl-5-(3-((2-methyl-2H-1,2,3-triazol-4-yl)sulfonyl)-6-(phenoxymethyl)-3-azabicyclo[3.1.0]hexan-1-yl)-1H-indazole]
22 | 0.078 | CCCn1ncc(S(=O)(=O)N2CC3CC(OC)(c4ccccc4)CC3(c3cc4cnn(-c5ccc(F)cc5)c4cc3C)C2)n1 (stereo not shown) [Example 27]
23 | 0.061 | Cc1cc2c(cnn2-c2ccc(F)cc2)cc1[C@@]12CN(C(=O)c3ccnn3C)C[C@@H]1[C@H]2c1ccccc1 (stereo in doubt) [Example 161, (1-(1-(4-fluorophenyl)-6-methyl-1H-indazol-5-yl)-6-phenyl-3-azabicyclo[3.1.0]hexan-3-yl)(1-methyl-1H-pyrazol-5-yl)methanone]
24 | 0.039 | Cc1cc2c(cnn2-c2ccc(F)cc2)cc1[C@@]12CN(C(=O)c3ccc(C(F)(F)F)cn3)C[C@@H]1[C@H]2c1ccccc1 (stereo in doubt) [Example 168, (1-(1-(4-fluorophenyl)-6-methyl-1H-indazol-5-yl)-6-phenyl-3-azabicyclo[3.1.0]hexan-3-yl)(5-(trifluoromethyl)pyridin-2-yl)methanone]

Row | SMILES | Ki [µM]
25 | Cc1cc2c(cnn2-c2ccc(F)cc2)cc1[C@]12CN(S(=O)(=O)c3cncc(F)c3)C[C@H]1[C@@H]2c1ccccc1 [Example 78] | 0.025
26 | COCCn1cc(S(=O)(=O)N2C[C@H]3[C@H](c4ccccc4)[C@@]3(c3cc4cnn(-c5ccc(F)cc5)c4cc3C)C2)cn1 [Example 79] | 0.033
27 | CO[C@]1(c2ccccc2)C[C@@H]2CN(C(C)=O)C[C@]2(c2cc3cnn(-c4ccc(F)cc4)c3cc2C)C1 [Example 33] | 0.22
28 | Cc1cc2c(cnn2-c2ccc(F)cc2)cc1[C@@]12CN(S(=O)(=O)c3cnn(C)n3)C[C@@H]1[C@H]2C(=O)NC1CCCC1 [Example 61] | 0.2
29 | Cc1cc2c(cnn2-c2ccc(F)cc2)cc1[C@]12CN(C(=O)c3cn(C)nn3)C[C@H]1[C@@H]2c1ccccc1 [Example 147, (1-(1-(4-fluorophenyl)-6-methyl-1H-indazol-5-yl)-6-phenyl-3-azabicyclo[3.1.0]hexan-3-yl)(1-methyl-1H-l,2,3-triazol-4-yl)methanone] | 0.037
30 | Cc1cc2c(cnn2-c2ccc(F)cc2)cc1[C@]12CN(S(=O)(=O)c3cnn(C)c3)C[C@H]1[C@@H]2c1cccc(Cl)c1 [Example 96] | 0.11
31 | Cc1cc2c(cnn2-c2ccc(F)cc2)cc1[C@@]12CN(S(=O)(=O)N3CC(C#N)C3)C[C@@H]1[C@H]2c1ccccc1 [Example 103] | 0.027
32 | Cc1cc2c(cnn2-c2ccc(F)cc2)cc1[C@@]12CN(S(=O)(=O)N(C)C)C[C@@H]1[C@H]2c1ccccc1 [Example 108] | 0.016
33 | Cc1cc2c(cnn2-c2ccc(F)cc2)cc1[C@]12CN(S(=O)(=O)c3cnn(C(C)C)n3)C[C@H]1[C@@H]2c1ccccc1 [Example 80] | 0.023
34 | Cc1cc2c(cnn2-c2ccc(F)cc2)cc1[C@]12CN(S(=O)(=O)c3cnn(C)n3)C[C@H]1[C@@H]2C(=O)N(C)c1ccccc1 [Example 64] | 0.13
